Reference: the supplement of paper PMC3974653
Structures can show the parent of a compound that is named as a salt.

The compounds below were run on MTT (mouse pheochromocytoma) (assay: IC50 of cell viability (ATP content)). Conditions: (24 or 48 h).
How it was run: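 After overnight culture at 37°C, 5% CO2 in white 1536-well plates, MTT mouse pheochromocytoma cells were given 23 nl of library compound in DMSO by pintool across 8 concentrations, spanning final 0.5 nM to 46 µM. Following 24 or 48 hrs, CellTiter-Glo luminescence was read after 15 minutes and normalised against positive-control (100%) and DMSO (0%) wells. A four-parameter logistic model provided the IC50.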

SMILES	IC50 of cell viability
Cc1nccn1C[C@@H]1CCc2c(c3ccccc3n2C)C1=O [Ondansetron Hydrochloride]	> 46 µM
Cc1nccn1CC1CCc2c(c3ccccc3n2C)C1=O (stereo not given) [Ondansetron]	> 46 µM
COc1ccc(/C=N/NC(=O)c2ccncc2)c(C(=O)O)c1OC [Opiniazida]	> 46 µM
OCCN1CCN(CCCN2C3=C(C=CC=C3)\C=C/C4=C2C=CC=C4)CC1 [Opipramol HCl]	> 46 µM
C[C@@H]1CN(c2c(F)c(F)c3c(=O)c(C(=O)O)cn(C4CC4)c3c2F)C[C@H](C)N1 [Orbifloxacin]	> 46 µM
Cc1ncc([N+](=O)[O-])n1C[C@H](O)CCl [Ornidazole]	> 46 µM
O=C(O)c1cc(O)nc(O)n1 [Orotic acid]	> 46 µM
Cc1ccccc1C(OCCN(C)C)c1ccccc1 (stereo not given) [Orphenadrine citrate salt]	> 46 µM
CCCN(CCC)c1c([N+](=O)[O-])cc([S+](N)(=O)[O-])cc1[N+](=O)[O-] [Oryzalin]	> 46 µM
O=C(Nc1ccc(O)cc1)c1ccccc1O [Osalmid]	> 46 µM
Cc1onc(-c2ccccc2)c1C(=O)N[C@@H]1C(=O)N2C1SC(C)(C)[C@@H]2C(=O)[O-] (stereo not given in full) [Oxacillin sodium salt]	> 46 µM
CCN(CC)CCc1nc(-c2ccccc2)no1.O=C(O)CC(O)(CC(=O)O)C(=O)O [Oxalamine citrate salt]	> 46 µM
CC(C)NC[C@H]1CCc2cc(CO)c([N+](=O)[O-])cc2N1 [Oxamniquine]	> 46 µM
O=c1[nH]c2ccccc2n1CCCN1CCN(C(c2ccccc2)c2ccccc2)CC1 [Oxatomide]	> 46 µM
O=C1Nc2ccc(Cl)cc2C(c2ccccc2)=NC1O (stereo not given) [Oxazepam]	> 46 µM
CC[C@H]1C[C@H]2[C@@H]3CCC/4=C/C(=O)CC[C@@H]4[C@H]3CC[C@]2(C)[C@H]1O [Oxendolone]	> 46 µM
CN(C(=O)CN(CCO)CC(=O)N(C)C(C)(C)Cc1ccccc1)C(C)(C)Cc1ccccc1 [Oxethazaine]	> 46 µM
COC(=O)Nc1nc2ccc([S+]([O-])c3ccccc3)cc2[nH]1 (stereo not given) [Oxfendazole]	> 46 µM
NC(=O)CN1CC(O)CC1=O (stereo not given) [Oxiracetam]	> 46 µM
C=CCOc1ccccc1OC[C@H](O)CNC(C)C [Oxprenolol hydrochloride]	> 46 µM
COc1ccc(C(=O)c2ccccc2)c(O)c1 [Oxybenzone]	> 46 µM
CCN(CC)CC#CCOC(=O)[C@@](O)(c1ccccc1)C1CCCCC1 [Oxybutynin chloride]	> 46 µM

SMILES	IC50 of cell viability
C[C@]12C/C(=C/O)C(=O)C[C@@H]1CC[C@@H]1[C@@H]2CC[C@@]2(C)[C@H]1CC[C@]2(C)O [Oxymetholone]	> 46 µM
COc1cccc(C(=O)CCN[C@@H](C)[C@H](O)c2ccccc2)c1 [Oxyphedrine]	> 46 µM
CCCC[C@H]1C(=O)N(c2ccccc2)N(c2ccc(O)cc2)C1=O [Oxyphenbutazone]	> 46 µM
CC(=O)Oc1ccc(C2(c3ccc(OC(C)=O)cc3)C(=O)Nc3ccccc32)cc1 [Oxyphenisatin Acetate]	> 46 µM
CN(C)[C@H]\1[C@@H]2[C@@H](O)[C@H]3\C(=C(O)/[C@]2(O)C(=O)\C(=C1O)C(N)=O)C(=O)C4=C(C=CC=C4O)[C@@]3(C)O [Oxytetracycline HCl]	> 46 µM
O=C(O)/C=C\c1ccc(Cn2ccnc2)cc1 [Ozagrel hydrochloride]	> 46 µM
CNC(C)C(O)c1ccc(O)cc1 (stereo not given) [P-HYDROXYEPHEDRINE HYDROCHLORIDE]	> 46 µM
CNC(C)[C@@H](O)c1ccc(O)cc1 (stereo not given in full) [P-HYDROXYEPHEDRINE HYDROCHLORIDE]	> 46 µM
CCC(=O)c1ccc(O)cc1 [P-HYDROXYPROPIOPHENONE]	> 46 µM
Nc1ccc(N)cc1 [P-PHENYLENEDIAMINE]	> 46 µM
O=C1c2cccc3c2[C@@H](CCC3)CN1[C@@H]1CN2CCC1CC2 [PALONOSETRON HYDROCHLORIDE]	> 46 µM
Cn1c(=O)c2[nH]c(Br)nc2n(C)c1=O [PAMABROM]	> 46 µM
CCOC(=O)Cn1cccc1-c1nc(-c2ccc(OC)cc2)c(-c2ccc(OC)cc2)s1 [PAMICOGREL]	> 46 µM
CC(=O)OC1C([N+]2(C)CCCCC2)C[C@H]2C3CC[C@H]4C[C@H](OC(C)=O)C([N+]5(C)CCCCC5)CC4(C)[C@@H]3CCC12C (stereo not given in full) [PANCURONIUM]	> 46 µM
CC(C)(CO)[C@@H](O)C(=O)NCCC(=O)NCCSSCCNC(=O)CCNC(=O)[C@H](O)C(C)(C)CO [PANTETHINE]	> 46 µM
COc1ccnc(C[S+]([O-])c2nc3cc(OC(F)F)ccc3[nH]2)c1OC (stereo not given) [PANTOPRAZOLE]	> 46 µM
Clc1ccc(Cl)cc1 [PARADICHLOROBENZENE]	> 46 µM
CC1OC(C)OC(C)O1 (stereo not given) [PARALDEHYDE]	> 46 µM
c1ccc2c(c1)Sc1ccccc1N2CCN1CCCC1 [PARATHIAZINUM]	> 46 µM
CCOc1ccc(C(=O)OCCN(CC)CC)cc1 [PARETHOXYCAINE HYDROCHLORIDE]	> 46 µM
C#CCOC(C(=O)OCCN(C)C)(c1ccccc1)c1ccccc1 [PARGEVERINUM]	> 46 µM
NC[C@@H]1O[C@H](OC2[C@@H](CO)O[C@@H](OC3[C@H](O)[C@H](N)C[C@H](N)[C@H]3OC3O[C@H](CO)[C@@H](O)[C@H](O)[C@@H]3N)[C@H]2O)C(N)[C@H](O)[C@@H]1O (stereo not given in full) [PAROMOMYCIN SULFATE]	> 46 µM

SMILES	IC50 of cell viability
C[C@H]1COc2c(C3(N)CC3)c(F)cc3c(=O)c(C(=O)O)cn1c23 [PAZUFLOXACIN]	> 46 µM
CC(C(=O)O)c1ccc(/C=C2\CCCCC2=O)cc1 (stereo not given) [PELUBIPROFEN]	> 46 µM
Nc1nc(O)c2c(CCc3ccc(C(=O)N[C@H](CCC(=O)[O-])C(=O)[O-])cc3)c[nH]c2n1 [PEMETREXED]	> 46 µM
Cc1cccn2c(=O)c(-c3nnn[n-]3)cnc12 [PEMIROLAST POTASSIUM]	> 46 µM
Nc1nc(O)c(-c2ccccc2)o1 [PEMOLINE]	> 46 µM
CN1C(C)(C)CCCC1(C)C.O=C(O)C(O)C(O)C(=O)O [PEMPIDINE TARTRATE]	> 46 µM
Nc1nc(O)c2ncn(CCC(CO)CO)c2n1 [PENCICLOVIR SODIUM]	> 46 µM
CCCCCC1Nc2cc(C(F)(F)F)c([S+](N)(=O)[O-])cc2[S+](=O)([O-])N1 (stereo not given) [PENFLUTIZIDE]	> 46 µM
CC(C)(S)[C@@H](N)C(=O)O [PENICILLAMINE]	> 46 µM
CCCCCC(O)C1C(=O)OC(C)C(O)C=CC=CC=CC=CC=C(C)C(O)C(O)C(O)CC(O)CC(O)CC(O)CC(O)CC1O (stereo not given) [PENTAMYCIN]	> 46 µM
OCCOC[C@H]1O[C@H](OCCO)[C@H](OCCO)[C@@H](OCCO)[C@@H]1OCCO.OC[C@H]1O[C@H](O)[C@H](O)[C@@H](O)[C@@H]1O [PENTASTARCH]	> 46 µM
CNC1C(O)C(OC2C(N)CC(N)C(OC3OC(CN)=CCC3N)C2O)OCC1(C)O (stereo not given) [PENTISOMICINUM]	> 46 µM
CCCC(C)C1(CC)C(=O)N\C(=N/C1=O)O (stereo not given) [PENTOBARBITAL]	> 46 µM
C1CCc2nnnn2CC1 [PENTYLENETETRAZOLE]	> 46 µM
Cc1c(N)nc([C@@H](CC(N)=O)NC[C@H](N)C(N)=O)nc1C(=O)N[C@H](C(=O)N[C@@H](C)[C@@H](O)[C@@H](C)C(=O)N[C@H](C(=O)NCCc1nc(-c2nc(C(=O)NCCCN[C@H](C)c3ccccc3)cs2)cs1)[C@H](C)O)[C@@H](O[C@H]1O[C@@H](CO)[C@H](O)[C@@H](O)[C@H]1O[C@H]1O[C@@H](CO)[C@@H](O)[C@H](OC(N)=O)[C@H]1O)c1cnc[nH]1 [PEPLOMYCIN SULFATE]	> 46 µM
CC(C)CC(=O)N[C@H](C(=O)N[C@H](C(=O)N[C@@H](CC(C)C)[C@@H](O)CC(=O)N[C@@H](C)C(=O)N[C@@H](CC(C)C)[C@@H](O)CC(=O)O)C(C)C)C(C)C [PEPSTATINUM]	> 46 µM
CC(=O)OO [PERACETIC ACID]	> 46 µM
FC(F)(F)C(F)(F)C(F)(F)C(F)(F)C(F)(F)C(F)(F)F [PERFLEXANE]	> 46 µM
FC1(F)C(F)(F)C(F)(F)C2(F)C(F)(F)C(F)(F)C(F)(F)C(F)(F)C2(F)C1(F)F (stereo not given) [PERFLUNAFENUM]	> 46 µM
CCCN1C[C@H](CSC)C[C@@H]2c3cccc4[nH]cc(c34)C[C@H]21 [PERGOLIDE METHANESULFONATE]	> 46 µM
CC1(C)C(\C=C(/Cl)Cl)C1C(=O)OCC2=CC=CC(OC3=CC=CC=C3)=C2 (stereo not given) [PERMETHRIN]	> 46 µM
